Source: patent US20250144247A1, “FORMULATIONS TO ENHANCE THE DELIVERY OF GENE THERAPY VECTORS” (priority 2023, published 2025)

Test system: pig airways
Assay: Viral gene transfer in pig airways
Type: in vivo, newborn pigs
Description: Newborn pigs were sedated using isoflurane and viral vector formulated with NaCl (0.9% or 5% final) and acrosolized 2 ml intratracheally using a MADgic Laryngo-Tracheal Mucosal Atomization Device (Teleflex, Morrisville, NC). Doses for each vector for each pig were as follows: 2.8×10^10 infectious genomic units (IGU) of helper-dependent Ad-CMV-GFP and 7×10^8 TU of GP64 HIV-CMV-GFP. Doses were prepared by mixing a 1.8% NaCl or 10% NaCl stock 1:1 with 1 ml of vector. 1 week later, pigs were humanely euthanized, and lungs were analyzed for GFP expression. Lungs were systematically divided and fixed in 4% paraformaldehyde, subjected to a sucrose gradient, and embedded in OCT for cryosectioning. Sectioned lung slides were mounted using DAPI and imaged using a Keyence All-in-one Fluorescence Microscope BZ-X series (Osaka, Japan).
To determine cell types transduced in vivo, a pig model that more closely recapitulates the anatomy and cell biology of human airways was used. Newborn pigs received Ad-GFP via intratracheal delivery with 0.9% NaCl or 5% NaCl. Five days after delivery, lungs were collected and GFP expression was visualized under a fluorescence dissecting microscope (data not shown). Lungs were divided into 20 regions for systematic quantification as previously described (data not shown) and scored based on level of expression (0=no expression, 1=low expression, 2=moderate expression, and 3=high expression) (data not shown).

[Cl-].[Na+] [NaCl, sodium chloride]
GFP+ score (0-3, 20 lung regions) (Ad-GFP intratracheal, NaCl 5% vs 0.9%, five days): significantly increased | transduction of ciliated cells and CK5+ basal cells (Ad-GFP, 5% NaCl): transduction of ciliated cells was observed | transduction of submucosal glands (Ad-GFP, 5% NaCl): high levels of transduction | transduction of large (>500 μm^2) and small (<500 μm^2) airways (Ad-GFP, 5% NaCl vs 0.9% NaCl): significantly more airway transduction | transduction by GP64 HIV-GFP (NaCl 5% vs 0.9% NaCl): significantly enhanced transduction
